Data published in ChEMBL document CHEMBL1201862, “PubChem BioAssay data set” (2004).
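Results reflect a 48-hour exposure of cells in 96-well plates to compound at five concentrations. Abbreviation: GI50, concentration required for 50% inhibition of growth.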 Active and inactive are the calls of the source. Cut-off read from the data, not from the text of the source: active = GI50 up to about 1.1 µM and inactive = higher.

How the values were obtained:
Experiment in all cases: growth of human tumour cells (NCI), 48 h
LXFL 529 = test system: LXFL 529
M19-MEL = test system: M19-MEL
SNB-78 = test system: SNB-78
HOP-18 = test system: HOP-18
DMS-114 = test system: DMS-114
DMS-273 = test system: DMS-273
BT-549 = test system: BT-549
XF498 = test system: XF498
RXF 631 = test system: RXF 631

Structure (SMILES) | GI50 (LXFL 529) | GI50 (M19-MEL) | GI50 (BT-549) | further results
COc1cc(C=C2C(=O)OC(C)(C)OC2=O)cc(OC)c1OC | > 100 µM (inactive) | > 100 µM (inactive) | – | GI50 (SNB-78): > 100 µM (inactive); GI50 (HOP-18): > 100 µM (inactive); GI50 (DMS-114): > 100 µM (inactive); GI50 (DMS-273): > 100 µM (inactive)
CC1=CC(=O)C2=C(C)CCC3C(C)C(=O)OC3C12 (stereo unspecified) | – | – | > 100 µM (inactive) | –
C[C@@](Br)(C(=O)O)[C@H](Br)C(=O)O | – | – | > 100 µM (inactive) | –
CC(C)(CC(=O)Nc1ccccc1)C(=O)O | – | – | > 100 µM (inactive) | –
N#CC1CCCCCCCCCCC(=O)N(CCCl)C1=O (stereo unspecified) | > 100 µM (inactive) | > 100 µM (inactive) | – | GI50 (XF498): > 100 µM (inactive); GI50 (SNB-78): > 100 µM (inactive); GI50 (DMS-114): > 100 µM (inactive); GI50 (DMS-273): > 100 µM (inactive)
COc1cc(O)c2c(c1)C(O)C(O)CC1OC1C(=O)/C=C/CC(C)OC2=O (stereo unspecified) | – | – | 0.979 µM (active) | –
Cc1c2oc3c(C)cnc(C(=O)NC4C(=O)NC(C(C)C)C(=O)N5CCCC5C(=O)N(C)CC(=O)N(C)C(C(C)C)C(=O)OC4C)c3nc-2c(C(=O)NC2C(=O)NC(C(C)C)C(=O)N3CCCC3C(=O)N(C)CC(=O)N(C)C(C(C)C)C(=O)OC2C)c(N)c1=O (stereo unspecified) | – | – | 7.62 µM (inactive) | –
O=C1C=C(c2[nH]c3ccccc3c2C2=CC(=O)c3ccccc3C2=O)C(=O)c2ccccc21 | 37.3 µM (inactive) | 17.3 µM (inactive) | – | GI50 (SNB-78): 32.8 µM (inactive); GI50 (HOP-18): > 100 µM (inactive); GI50 (DMS-114): 17.3 µM (inactive); GI50 (DMS-273): 39.2 µM (inactive)
CN(C)CCC(O)(c1ccccc1)C(O)(CCN(C)C)c1ccccc1 (stereo unspecified) | > 100 µM (inactive) | > 100 µM (inactive) | – | GI50 (XF498): 38.7 µM (inactive); GI50 (SNB-78): > 100 µM (inactive); GI50 (DMS-114): > 100 µM (inactive)
OCCCC(O)(c1ccccc1)c1ccccc1 | – | – | > 100 µM (inactive) | –
C=C1[C@@H]2CCC(C)(C)[C@H]1CCC(=O)[C@@H]2C(=O)OC | > 100 µM (inactive) | > 100 µM (inactive) | – | GI50 (XF498): > 100 µM (inactive); GI50 (RXF 631): > 100 µM (inactive); GI50 (DMS-114): > 100 µM (inactive); GI50 (DMS-273): > 100 µM (inactive)
O=C(c1nc2ccc(Cl)cc2[nH]c1=O)C(O)c1cccc([N+](=O)[O-])c1 (stereo unspecified) | > 100 µM (inactive) | > 100 µM (inactive) | – | GI50 (XF498): 9.1 µM (inactive); GI50 (SNB-78): > 100 µM (inactive); GI50 (HOP-18): > 100 µM (inactive); GI50 (DMS-114): 5.98 µM (inactive); GI50 (DMS-273): > 100 µM (inactive)
CC(=O)CC(=O)c1cc2c(=O)oc(C)cc2oc1=O | – | – | > 37.5 µM (inactive) | –
CCOC(=O)c1c(C)n(-c2ccc(C)cc2)c(=O)c2ccccc2c(=O)c2c(=O)ccc(=O)c1=2 | – | – | 23.3 µM (inactive) | –
COc1ccc(/C=C2\C[C@H]3[C@@H]4CCC5=C/C(=N/O)CC[C@]5(C)[C@H]4CC[C@]3(C)\C2=N\O)cc1 | – | – | 15.9 µM (inactive) | –
O=C(c1ccco1)n1c2ccc(Br)cc2c2nc3ccccc3nc21 | – | – | 45.4 µM (inactive) | –
O=C1CSC(c2c[nH]c3ccccc23)N1c1ccc(Cl)cc1Cl (stereo unspecified) | – | – | > 100 µM (inactive) | –

Structure (SMILES) | GI50 (LXFL 529) | GI50 (M19-MEL) | GI50 (BT-549) | further results
Cc1cccc2c1C(=O)[C@](C)([C@]1(C)Nc3cccc(C)c3C1=O)N2 | – | – | 20.8 µM (inactive) | –
COc1cc(OCc2nc3ccccc3n3cccc23)cc(OC)c1OC | – | – | 19.7 µM (inactive) | –
CCOC(=O)c1c(N)sc2c1C(C(=O)OCC)CCC2 (stereo unspecified) | – | – | > 100 µM (inactive) | –
COC(=O)c1ccc(CN2CCc3c([nH]c4ccccc34)C2CO)o1 (stereo unspecified) | – | – | > 10 µM (inactive) | –
CCC(=O)CC(=O)CCC(=O)Nc1cc(C)ccc1C | > 100 µM (inactive) | – | – | GI50 (XF498): > 100 µM (inactive); GI50 (SNB-78): > 100 µM (inactive); GI50 (HOP-18): > 100 µM (inactive)
O=C(O)C(CO)NC(=O)n1c2ccccc2c2ccccc21 (stereo unspecified) | > 100 µM (inactive) | > 100 µM (inactive) | – | GI50 (XF498): > 100 µM (inactive); GI50 (HOP-18): > 100 µM (inactive); GI50 (DMS-114): > 100 µM (inactive); GI50 (DMS-273): > 100 µM (inactive)
CN(C)CCOc1ccc2[nH]c(C(=O)N3CC(CCl)c4c3cc(NC(=O)OCc3ccc([N+](=O)[O-])cc3)c3ccccc43)cc2c1 (stereo unspecified) | – | – | 1.85 µM (inactive) | –
CC1C(c2ccccc2)N(C)C(c2ccccc2)C(C)C1(O)c1ccccc1 (stereo unspecified) | > 100 µM (inactive) | 47.4 µM (inactive) | – | GI50 (SNB-78): > 100 µM (inactive); GI50 (DMS-114): > 100 µM (inactive); GI50 (DMS-273): 40.7 µM (inactive)
CC1CCc2sc3nc(S)n(C)c(=O)c3c2C1 (stereo unspecified) | – | – | 96.8 µM (inactive) | –
COc1ccc2c(-c3ccc(OCCN(C)C)cc3)c(Oc3ccc(Cl)cc3)c(=O)oc2c1 | – | – | 14.7 µM (inactive) | –
c1ccc2c(c1)CCc1cc3cc4c(nc3nc1-2)-c1ccccc1CC4 | > 100 µM (inactive) | > 100 µM (inactive) | – | GI50 (SNB-78): > 100 µM (inactive); GI50 (DMS-273): > 100 µM (inactive)
C/C=C1/CN2CCC34c5ccccc5N(C)C23C2CC1C4(C(=O)OC)C(OC(C)=O)O2 (stereo unspecified) | – | – | > 100 µM (inactive) | –
N=c1c2ccccc2nc2oc3ccc(Cl)cc3n12 | – | – | 36.6 µM (inactive) | –
Cc1ccc(Cl)c2c(=O)cc(-c3ccccc3)[nH]c12 | 41.7 µM (inactive) | 68.7 µM (inactive) | – | GI50 (HOP-18): 11.5 µM (inactive); GI50 (DMS-273): 35.6 µM (inactive)
Cc1ccc(Nc2c(C#N)[n+]([O-])c3cc(Cl)ccc3[n+]2[O-])cc1 | – | – | 9.46 µM (inactive) | –
COC(=O)C1=C(\c2ccccc2)c2ccccc2C(=O)N(C2CCCCC2)/C=C\1 | – | – | 23.1 µM (inactive) | –
